The subject of experiment [1] is MCA205 cells with PSMB4 GSFARFRNI knock-in. In words: Growth of Psmb4 knock-in MCA205 tumors under CTX +/- E. hirae 13144. Type of experiment: in vivo, mice. The note with it: L→F exchange in position 3, versus WT MCA205.
The next experiment relates to splenic CD8+ T cells. Put plainly: IFNγ ELISpot recall assay of splenic CD8+ T cells with DCs pulsed with heat-inactivated bacteria or peptides. Format: cell-based, mice. The note with it: for recall responses to TMP1, TMP2 and Group7 after in vivo immunization with the strain: Example 3, FIG. 13E. The procedure: FIG. 9. Experimental immunization protocols to elucidate the immunogenicity of EH peptides. […] 5 days after the first oral gavage, mice are treated with CTX. One week post-CTX, CD8+ T cells are isolated from spleen. These CD8+ T cells are incubated with dendritic cells (DCs) pulsed with 20 μg/ml of peptides (during 1 hour) or with heat-inactivated bacteria (during 6 hours). Inactivation of bacteria consists in incubation at 65° C. during 2 hours. After 24 hours of culture, ELIspot of IFNγ is performed.
FIG. 10. Cross-reactivity between the two E. hirae 708 and 13144 species for CTL splenic reactivity. Number of IFNγ spot representing IFNγ-secreting CD8+ T cells after co-culture with DCs pre-incubated with or without heat-inactivated bacteria (708, 13144, EH17 and L. plantarum).
FIG. 13. Peptides from group 7 containing the TMP1 and TMP2 epitopes activate CD8+ T cells from spleen of mice immunized against E. hirae 13144. Number of IFNγ spot, representing IFNγ-secreting CD8+ T cells, after incubation with DCs pulsed with 13 different group of peptide (Table 6). Just group n° 1 (A) and group n° 7 (B) are shown. (C, E) Number of IFNγ spot, representing IFNγ-secreting CD8+ T cells, after incubation with DCs pulsed with 4 peptides belong to group n° 7 (in table 7). (D) Sequence alignment of TMP1 and TMP2 of EH10815 (SEQ ID Nos: 228 and 229 respectively) compared to EH13144 (fragments of SEQ ID NO: 1) at the level of immunogenic peptides. Amino acid sequence […] corresponds to SEQ ID No: 13. Amino acid sequence […] corresponds to SEQ ID No: 217. Amino acid sequence […] corresponds to SEQ ID Nos: 14. Amino acid sequence AlIEFIKGL corresponds to SEQ ID No: 218. (E) In vitro reactivity of splenic CTL in a recall response to TMP1 and TMP2 as well as Group7 after in vivo immunization with other strains of EH.
(§1) A and C. Experimental setting. […] D-E. Ex vivo recall assays. […] Each dot represents one mouse.

Experiment [2] deals with MCA-205 sarcoma. Put plainly: MCA-205 sarcoma growth in FMT-treated mice, CTX plus oral gavage with E. hirae strains. Format: in vivo. The note with it: for boost of CTX tumoricidal activity (MCA-205 tumor growth): dysbiotic FMT from BC patient, 3 cycles CTX 100 mg/kg, oral gavage 1.10^9 bacteria; for Anti-tumor effect: summary of the characteristics of the strains, with CTX, MCA205 sarcoma; for antitumor effect together with CTX (summary statements): MCA205 tumor model together with CTX. The procedure:
FIG. 1. Experimental setting. (A) Mice are treated with broad spectrum antibiotics (streptomycin, colistin, ampicillin and vancomycine) for 3 days before performing Fecal Microbiota Transplantation (FMT). 14 days post-FMT, MCA-205 sarcoma cell lines are inoculated in the right flank of mice (8.10^5 cells per mice). […] (B) Non FMT-treated SPF mice are used as control.
FIG. 2. Dysbiosis by FMT BC patient 1: Effectiveness of E. hirae 13144 to restore CTX-mediated antitumor effects. […] (C) Tumor growth curves of MCA-205 sarcoma in FMT-treated mice after oral gavage with strain E. hirae 13144 or NaCl as control. 2 independent experiments are depicted. (D) Overall survival of FMT-treated, MCA-205 sarcoma bearing mice treated with CTX or NaCl after oral gavage with strain E. hirae 13144. A typical survival curve is depicted for six mice per group. (E) Concatenated data of tumor sizes at day 21 post-CTX from 2 independent experiments are shown.
FIG. 3. […] (C) Tumor growth curves of MCA-205 sarcoma in FMT-treated mice after oral gavage with strain E. hirae 13144 or NaCl as control. 2 independent experiments are depicted. (D) Concatenated data of tumor sizes at day 21 post-CTX from 2 independent experiments are shown.
FIG. 4. […] Tumor growth curves of MCA-205 sarcoma in FMT-treated mice after oral gavage with strain E. hirae 13144 (A), IGR1 (B) or NaCl as control. A typical curve is depicted for six mice per group. (C) Concatenated data of tumor sizes at day 17 post-CTX from 1-2 independent experiments are shown. (D). Comparaison of various strains of E. hirae for their capacity to control tumor growth. […] EH10815 fails to work and that may be related to a mutation residing in TMP2 (see below FIG. 13B).
FIG. 5. […] (A) Tumor surface of MCA-205 sarcoma in FMT-treated mice after oral gavage with strain E. hirae 13144, IGR4, IGR7, Actinomycetes spp (Ao) and injected with 3 cycles of CTX (C) vs NaCl (N). Each dot is one mouse/tumor. (B) Tumor growth curves of MCA-205 sarcoma in SPF mice of the best group, means+SEM of tumor sizes at each time point and tumor sizes at sacrifice (C: CTX). Each dot is one mouse/tumor. Anova statistics indicating significant differences between CTX and the triple combination. (C) Tumor surface of MCA-205 sarcoma in FMT-treated mice after oral gavage with strains EH13144, IGR1, IGR11, Barnesiella or Akkermansia and injected with 3 cycles of CTX. Bacterial strains are used alive (V) or pasteurized (P). For pasteurization, bacteria are incubated 30 min at 70° C. and frozen at −80° C. at least 6 hours.
FIG. 6. […] Tumor growth curves of MCA-205 sarcoma in FMT-treated mice after oral gavage with strain E. hirae 13144 alive (A), pasteurized (B) or NaCl as control. A typical curve is depicted for six mice per group. (C) Concatenated data of tumor sizes at day 17 post-CTX from 3 independent experiments are shown.

The subject of experiment [3] is MCA-205 sarcoma. Put plainly: MCA205 sarcoma growth in antibiotic-treated SPF C57BL/6 mice, CTX plus oral gavage with bacteria. As to conditions: ATB 3 days, CTX 100 mg/kg x3, weekly oral gavages, FIG. 27B. Type of experiment: in vivo. As for the experimental part: as §1
A-B. Prophylactic vaccinations. […] C-D. Therapeutic settings.
Mice were treated during 3 days with an antibiotic solution (ATB) containing ampicillin (1 mg/ml), streptomycin (5 mg/ml), colistin (1 mg/ml) (Sigma-Aldrich) and vancomycin (0.25 mg/ml) added in the sterile drinking water of mice. Antibiotic activity was confirmed by cultivating fecal pellets resuspended in BHI+15% glycerol at 0.1 g/ml on COS (BD Columbia Agar with 5% Sheep Blood) plates for 48 h at 37° C. in aerobic and anaerobic conditions. In the context of bacterial transplantation experiments, mice received 3 days of ATB before undergoing bacterial transplantation the next day by oral gavage using animal feeding needles.
Syngeneic C57BL/6 mice were implanted with 0.8×10^6 MCA-205 WT sarcoma cells subcutaneously and treated intraperitoneally (i.p.) when tumors reached 20 to 35 mm^2 in size with CTX (100 mg/kg). Depending on the experimental setting, mice were injected once or 3 times at 1-week interval. Tumor size was routinely monitored every 3 days by means of a caliper.
Enterococcus hirae 13144 were originally isolated from spleens of SPF mice treated with CTX in our laboratory.

A further experiment has as its system BM-DC. Put plainly: IL-1B and IL-12 production by BM-DC. Format: cell-based. The note with it: data not shown.
A further experiment concerns pTh17 cells. Put plainly: Induction of pTh17 cells in secondary lymphoid organs of CTX-treated animals. Format: in vivo. The text has this: The reasons for these differences were however unknown, and the inventors pursued their research to identify the factor(s) responsible for the immunogenic properties of the murine strain EH13144 and the human clones IGR4, IGR7 and IGR11, in order to derive new molecules or microorganisms useful in the treatment of cancer.

Experiment [4] has as its system TMP1-specific CD8+ T cells. As to conditions: FIG. 27H.
Experiment [5] has as its system CD8+ T cells from HLA-A02*01 healthy volunteers. Put plainly: IFNγ ELISpot of CD8+ T cells from HLA-A2 healthy volunteers stimulated with TMP epitopes. The note with it: Example 7, FIG. 24B. Type of experiment: cell-based, human.

“Also recorded” adds a separate entry of the source. Where no end group is shown, it is not given here.

Consider 13 compounds from US12102672B2, “Immunogenic sequences from a phage tail length tape measure protein, bacteria expressing the same and their use in treating a cancer” (INSTITUT GUSTAVE ROUSSY, priority 2017, dated 2024).

For the compound `O=P1(N(CCCl)CCCl)NCCCO1` (stereo not shown) [CTX, cyclophosphamide, reference compound], the “anticancer effect on PSMB4 knock-in (GSFARFRNI) MCA205 tumors” value in experiment [1] is recorded as “not interfering”.

With AMIEFIQGL, the “recognition of peptides by memory EH13144-induced Tc1 cells (IFNγ ELISpot)” value in the experiment on splenic CD8+ T cells (Example 3, FIG. 13/32, DCs pulsed with 20 μg/ml peptides) was “highly recognized”.

Take “Enterococcus hirae ATCC9790 [10815 (ATCC9790), reference compound]”: the “boost of CTX tumoricidal activity (MCA-205 tumor growth)” value (“boost of CTX tumoricidal activity” below) is “failed to efficiently boost CTX tumoricidal activity” in the experiment on MCA-205 sarcoma [2] and “did not mediate antitumor effects; also recorded: fails to work” in the experiment on MCA-205 sarcoma [2] (listed as EH10815). In addition, the Anti-tumor effect entry with MCA-205 sarcoma [2] is reported as “No”. The “restoration of antibiotic-perturbed anticancer effects of CTX (MCA205 growth)” value (shortened to “restoration”) in the experiment with MCA-205 sarcoma [3] is on record as “reduced anticancer effect”. Moreover, the “recall responses to TMP1, TMP2 and Group7 after in vivo immunization with the strain” value in the experiment with splenic CD8+ T cells is “does not induce recall responses”. In addition, in the experiment on splenic CD8+ T cells (Example 12, FIG. 27E), the “TC1 response against TMP1 in mice gavaged with the strain (IFNγ ELISpot)” value is recorded as “unable to do so”.

For Enterococcus hirae IGR1 [IGR 1], in the experiment with MCA-205 sarcoma [2], the “boost of CTX tumoricidal activity” value was “not immunogenic; also recorded: failed to efficiently boost CTX tumoricidal activity” and the Anti-tumor effect entry is “No”. For the same compound, in the experiment on BM-DC, the “IL-1B and IL-12 production by BM-DC” value was “as effective as EH13144”.

For Enterococcus hirae IGR10 [IGR 10], in the experiment on MCA-205 sarcoma [2], the “boost of CTX tumoricidal activity” value is reported as “failed to efficiently boost CTX tumoricidal activity” and the Anti-tumor effect result is on record as “No”.

Regarding Enterococcus hirae strain IGR4 [IGR 4], in the experiment with MCA-205 sarcoma [2], the “antitumor effect together with CTX (summary statements)” value (“antitumor effect together with CTX” for short) is recorded as “effective at synergizing with CTX”, the “boost of CTX tumoricidal activity” value is listed as “also immunogenic” and the Anti-tumor effect result is “Yes”. In addition, in the experiment on MCA-205 sarcoma [2] (listed as EH IGR 4), the “boost of CTX tumoricidal activity” value is given as “efficacy comparable to EH 13144”.

On to Enterococcus hirae strain IGR7 [IGR 7], for which the “antitumor effect together with CTX” value with MCA-205 sarcoma [2] is “proved immunogenic”; in the experiment on MCA-205 sarcoma [2] (listed as clone IGR7), “effective at synergizing with CTX”. In addition, the “boost of CTX tumoricidal activity” value in the experiment with MCA-205 sarcoma [2] was “also immunogenic”; with MCA-205 sarcoma [2] (listed as EH IGR 7) it was “efficacy comparable to EH 13144”. Further, the Anti-tumor effect entry in the experiment with MCA-205 sarcoma [2] is given as “Yes”. In addition, the “restoration” value in the experiment with MCA-205 sarcoma [3] is on record as “efficient”; in the experiment on MCA-205 sarcoma [3] (listed as E. hirae IGR7), “as efficient as E. hirae 13144”. In addition, the “recall responses to TMP1, TMP2 and Group7 after in vivo immunization with the strain” value in the experiment on splenic CD8+ T cells is “induce recall responses”. In the experiment on pTh17 cells, the “capacity to induce pTh17 cells in secondary lymphoid organs” value is recorded as “significant capacity to induce pTh17 cells”. The “proportion of splenic TMP1-specific CTLs after immunization with the strain (tetramer)” value in experiment [4] is on record as “high proportion”.

In the case of “Enterococcus hirae strain IGR11 [IGR 11]”, the “antitumor effect together with CTX” value is reported as “efficient to mediate some tumoricidal activity” in the experiment with MCA-205 sarcoma [2] and “to some extent” in the experiment with MCA-205 sarcoma [2] (listed as clone IGR11). In addition, the “boost of CTX tumoricidal activity” value in the experiment on MCA-205 sarcoma [2] was “not immunogenic”. Further, the Anti-tumor effect entry in the experiment with MCA-205 sarcoma [2] is on record as “Yes”. Moreover, the “restoration” value in the experiment with MCA-205 sarcoma [3] was “efficient”; with MCA-205 sarcoma [3] (listed as E. hirae IGR11), “as efficient as E. hirae 13144”. For the same compound, in the experiment with BM-DC, the “IL-1B and IL-12 production by BM-DC” value was “as effective as EH13144”. In addition, the “proportion of splenic TMP1-specific CTLs after immunization with the strain (tetramer)” value in experiment [4] was “high proportion”.

With ILVAITTTI, in experiment [5], the “immunogenicity in humans of HLA-A0201-restricted epitopes” value (“immunogenicity in humans” for short) is listed as “immunogenicity of which has been experimentally confirmed”.

With KLAKFASVV, the “immunogenicity in humans” value in experiment [5] is “immunogenicity of which has been experimentally confirmed”.

With KMVEILEEI, the “immunogenicity in humans” value in experiment [5] is “immunogenicity of which has been experimentally confirmed”.

As for LLGIYQSYV, the “immunogenicity in humans” value in experiment [5] is “immunogenicity of which has been experimentally confirmed”.

RLLKYDVGV: the “immunogenicity in humans” value in experiment [5] is listed as “immunogenicity of which has been experimentally confirmed”.
